Laboratory results as given in US20090131480A1 (priority 2005, published 2009).

Tests used:
[1] = test system: organotypic hippocampal slice cultures; test: Hypoxia-induced neurodegeneration in organotypic hippocampal slice cultures (PI fluorescence in CA1); assay type: cell-based, Wistar rat
Procedure: (§1) Medium was changed every 3-4 days.
(§2) Neurotoxicity protocols are outlined below.
(3) Hypoxia: Hypoxia was performed by exposing cultures to oxygen-deprivation as described previously. Pringle et al, Brain Research, 755:36-46 (1997); Pringle et al, Stroke, 27:2124-2130 (1996). Hypoxia was induced by transferring cultures to SFM (+PI) which had been saturated with 95% N2/5% CO2. Culture plates (without lids) were then sealed into an airtight chamber in which the atmosphere was saturated with 95% N2/5% CO2 by continuously blowing through gas at 10 L/min for ten minutes before being sealed and placed in the incubator for 170 mins (total time of hypoxia was therefore 180 mins). At the end of the period of hypoxia, cultures were returned to normoxic SFM (+PI) and placed back in the incubator for 21 hours. The freeradical scavenger MnTBAP (100 μM) was used as a positive neuroprotective control.

[2] = test system: dopamine turnover in mice striatum; test: Dopamine, DOPAC and HVA content / dopamine turnover in mice striatum (HPLC with electrochemical detection); assay type: in vivo, C57BL/6 mice; settings: for dopamine turnover in mice: monotherapy vs combination, FIG. 3
Procedure: C57BL/6 mice (SLC, Shizuoka, Japan) were used for the experiment. […] The two drugs were orally administered by gavage 1 hour before sampling. At the time the mice were sacrificed, both striata were rapidly dissected and were frozen by liquid nitrogen. The samples were subsequently sonicated in 0.5 ml of chilled 0.5 M perchloric acid containing 0.1 M EDTA, and centrifuged at 13000 rpm for 15 min at 4° C. Then monoamine levels were measured by HPLC with electrochemical detection. Supernatant aliquots of 201 were separated over an Eicompak SC5-ODS column (3×150 mm; Eicom, Japan) with mobile phase of 17% methanol, 83% 0.1M acetate/citrate buffer (pH 3.5) containing 190 mg/ml sodium 1-octanesulfonate and 50 mg/ml EDTA, and a flow rate of 0.65 ml/min. Peaks of dopamine, DOPAC, HVA, 5-HT, and 5-HIAA were quantified by area integration with PowerChrom (eDAQ, Australia), and concentrations were expressed as nanograms per milligram of striatal tissue.

[3] = test system: organotypic hippocampal slice cultures; test: Oxygen-glucose deprivation (OGD) in organotypic hippocampal slice cultures (PI fluorescence in CA1); assay type: cell-based, Wistar rat
Procedure: as §1, §2
(2) Oxygen-Glucose Deprivation (OGD): Experimental ischaemia was performed by exposing cultures to oxygen-glucose deprivation (OGD) as described previously. […] OGD was induced by transferring cultures to glucose-free SFM (+PI) which had been saturated with 95% N2/5% CO2. Culture plates (without lids) were then sealed into an airtight chamber in which the atmosphere was saturated with 95% N2/5% CO2 by continuously blowing through gas at 10 L/min for ten minutes before being sealed and placed in the incubator for 50 mins (total time of OGD was therefore 60 mins). At the end of the period of OGD cultures were returned to normoxic SFM containing PI and placed back in the incubator for 23 hours.

[4] = test system: organotypic hippocampal slice cultures; test: AMPA toxicity in organotypic hippocampal slice cultures (PI fluorescence in CA1); assay type: cell-based, Wistar rat
Procedure: as §1, §2
(1) AMPA: Cultures were transferred to fresh SFM (+PI) containing 30 μM S-AMPA for 3 hours under normal culture conditions. At the end of this period, cultures were returned to fresh SFM for 21 hours prior to determination of neuronal death by PI imaging. GYKI52466 (30 μM) was used as a positive, neuroprotective control.

[5] = test system: organotypic hippocampal slice cultures; test: Duroquinone free radical-mediated toxicity in organotypic hippocampal slice cultures (PI fluorescence in CA1); assay type: cell-based, Wistar rat; settings: 100 μM; 100 μM duroquinone 3 hours; duroquinone alone 51.0±3.4%
Procedure: as §1, §2
(5) Free radical-mediated toxicity (Duroquinone): Duroquinone produces superoxide-mediated neurotoxicity producing a selective neuronal lesion in the CA1 region. Wilde et al, J. Neurochem., 69(2):883-886 (1997). Cultures were transferred to fresh SFM (+PI) containing 100 μM duroquinone for 3 hours under normal culture conditions. At the end of this period, cultures were returned to fresh SFM for 21 hours prior to determination of neuronal death by PI imaging. MnTBAP (100 μM) was used as a positive neuroprotective control.

[6] = C57BL/6, mouse, in vivo, po, 1 h

N#Cc1ccccc1-c1cc(-c2ccccn2)cn(-c2ccccc2)c1=O [2-(2-oxo-1-phenyl-5-pyridin-2-yl-1,2-dihydropyridin-3-yl)benzonitrile]
neuronal damage, % of CA1 with PI fluorescence ([1]; 5 μM, hypoxia alone 45.1±3.5%): 3.9±1.8%
content of HVA in striatum ([2]; 1 mg/kg, orally, 1 hour before sampling, FIG. 1): elevated
dopamine turnover in mice [2]: modulated dopamine turnover but neither reached significance
effect on OGD-induced neurotoxicity ([3]; any other concentration assessed (up to 3 μM), OGD alone 50.6±5.2%): no significant effect
EC50 in OGD model ([3]; six-point concentration-response curve): could not be established

CC1=NN=C(c2ccc(N)cc2)c2cc3c(cc2C1)OCO3 [GYKI52466]
neuronal damage, % of CA1 with PI fluorescence ([4]; 30 μM test compound, 30 μM AMPA 3 hours, AMPA alone 65.1±1.7%): 14.3±2.3%
neuronal damage, % of CA1 with PI fluorescence ([4]; 30 μM, pre-incubation series, AMPA alone 46.5±5.0%): 21.7±2.7%
neuronal damage, % of CA1 with PI fluorescence ([3]; 30 μM, 60 minutes OGD, OGD alone 50.6±5.2%): 36.9±3.6%

O=C(O)c1ccc(/C2=C3\C=CC(=N3)/C(c3ccc(C(=O)O)cc3)=c3/cc/c4[n]3[Mn]([Cl])[n]3c2ccc3/C(c2ccc(C(=O)O)cc2)=C2/C=CC(=N2)\C=4c2ccc(C(=O)O)cc2)cc1 [MnTBAP]
neuronal damage, % of CA1 with PI fluorescence ([1]; 100 μM, 3 hours hypoxia, hypoxia alone 45.1±3.5%): 0.2±0.1%
neuronal damage, % of CA1 with PI fluorescence ([1]; 100 μM, repeated experiment, hypoxia alone 36.9±[…]): 0.8±0.4%
neuronal damage, % of CA1 with PI fluorescence ([1]; second set, hypoxia alone 36.4±[…]): 0.0±0.0%
neuronal damage, % of CA1 with PI fluorescence [5]: 0.1±0.0%
neuronal damage, % of CA1 with PI fluorescence ([3]; 100 μM, 60 minutes OGD, OGD alone 50.6±5.2%): 0.1±0.0%
neuronal damage, % of CA1 with PI fluorescence ([3]; 100 μM, second series, OGD alone 44.8±[…]): 0.6±0.2%

COc1cc2c(cc1OC)C(=O)C(CC1CCN(Cc3ccccc3)CC1)C2 (stereo not shown) [donepezil, 1-benzyl-4-((5,6-dimethoxy-1-indanon)-2-yl)methylpiperidine]
content of dopamine in striatum ([2]; donepezil orally, 1 hour before sampling): reduced the content of dopamine significantly
DPAC/DA ([2]; donepezil orally, FIG. 2): increased significantly
HVA/DA ([2]; donepezil orally, FIG. 2): increased significantly
dopamine turnover in mice [2]: modulated dopamine turnover but neither reached significance
dose at which peripheral side effect was shown [6]: ≥ 7.5 mg/kg
